The results in this text go back to patent publication US7772209B2, “Antifolate combination therapies” (Eli Lilly and Company, priority 2000, dated 2010).

In series [1] the test system is human MX-1 breast carcinoma. Kind of series: Tumor growth delay in human MX-1 breast carcinoma xenograft in female nude mice. It counts as in vivo. Here is the method:
To assess the effect of a methylmalonic acid lowering agent, alone or in combination with folic acid on the antitumor efficacy of an antifolate in a human tumor xenograft model, female nude mice bearing human MX-1 breast carcinoma were treated with ALIMTA alone or along with super-physiologic doses of folic acid or vitamin B12 (cobalamin).
(§1) The animals were maintained on sterilized standard lab chow ad libitum and sterilized water ad libitum. The human MX-1 tumor cells (5×10^6) obtained from donor tumors were implanted subcutaneously in a thigh of female nude mice 8- to 10-weeks old. Beginning on day 7 post tumor cell implantation, the animals were treated with ALIMTA (100 mg/kg or 150 mg/kg) once daily on days 7 through 11 and 14 through 18 by intraperitoneal injection alone or along with folic acid (6 mg/kg or 60 mg/kg) and/or vitamin B12 (165 mg/kg) by intraperitoneal injection on the same schedule.
(§2) Tumor response was monitored by tumor volume measurements twice weekly over the course of the experiment. Toxicity was monitored by body weight measurements made at the same time as the tumor volume measurements. Tumor growth delay was the difference in days for the treated and the controls tumors to reach 1000 mm^3.

Series [2] is described as follows: Body weight as general measure of toxicity in MX-1 tumor-bearing nude mice. As to the method: as §1, §2
Body weight was used as a general measure of toxicity for each of the treatment regimens. The body weight loss pattern reflected the treatment regimens with weight decrease during the treatment times of days 7 through 11 and 14 through 18 with some weight recovery during the intervening two days. The weight loss due to ALITMA was dose dependent but overall minor (3%).

Series [3] can be described thus: Clinical response to chemotherapy in chemonaive patients. Conditions: responders out of group size. It counts as in vivo, human. The text has this:
Additionally, sixty-two chemonaive patients requiring chemotherapeutic treatment were divided into two groups.

The conditions of series [4]: grade 3/4 toxic events, N = 246, not supplemented.
Procedure: One to two weeks prior to administration of ALIMTA urine is collected and blood is drawn from a human subject; and vitamin metabolite levels, methylmalonic acid and homocysteine, are determined. Homocysteine levels are determined in blood by a fluorescent polarization immunoassay kit manufactured by Abbot Laboratories. Methylmalonic acid levels are determined by urine levels using a 24 hour urine collection kit available from Biolab Medical Unit (a United Kingdom company). Additionally urine and blood may be collected one week prior to administration of ALIMTA (after at least 5 days of folic acid supplementation and at least 1 week vitamin B12 supplementation), and up to 4 days prior to every cycle.
For purposes of this study, patients should take oral folic acid daily beginning approximately 1 to 3 weeks before treatment with ALIMTA plus cisplatin or cisplatin alone and continuing daily until discontinuation from study therapy.
Vitamin B12 will be obtained and administered as a 1000 μg intramuscular injection. A vitamin B12 injection must be administered approximately 1 to 3 weeks before treatment with ALIMTA and should be repeated approximately every 9 weeks until the patient discontinues from study therapy.
Folic acid supplementation, 350-600 μg or equivalent should be taken orally daily beginning approximately 1 to 3 weeks prior to the first dose of MTA plus cisplatin and continue daily until the patient discontinues from study therapy. A vitamin B12 injection, 1000 μg, must be given intramuscularly approximately 1 to 3 weeks prior to the first dose of ALIMTA and should be repeated approximately every 9 weeks until the patient discontinues from study therapy.
The data to be compared are: • 1) Patient numbers and baseline demographic data for those supplemented from baseline. • 2) Homocysteine and methylmalonic acid levels, levels at baseline, prior to first dose, prior to second dose, and prior to each therapy cycle depending of the type of cancer under study. • 3) Grade 3 and 4 hematologic toxicity in these fully supplemented patients. • 4) Grade 3 and 4 nonhematologic toxicity in these fully supplemented patients.
Cyanocobalamin is used as the methylmalonic acid lowering agent in these studies.

As for `Nc1nc2[nH]cc(CCc3ccc(C(=O)N[C@@H](CCC(=O)O)C(=O)O)cc3)c2c(=O)[nH]1` [ALIMTA, pemetrexed disodium], in series [1] (ALIMTA 100 mg/kg ip once daily days 7-11 and 14-18, alone, time to reach 1000 mm^3 vs controls), the Tumor growth delay was found to be 17 days. Besides, the Tumor growth delay in series [1] (ALIMTA 150 mg/kg ip once daily days 7-11 and 14-18, alone) was 21 days. The Body weight loss in series [2] (mouse, in vivo) is recorded as 3%. Besides, in series [3], the “Patients who responded to the chemotherapy” value is recorded as 1 out of 17. In series [4], the “Percent of occurrences prior to B12/folic acid treatment: Diarrhea” value was found to be 6%, the “Percent of occurrences prior to B12/folic acid treatment: Hematologic Toxicity/Non-Hematologic Toxicity” value came to 37%, the “Percent of occurrences prior to B12/folic acid treatment: Mucositis” value was found to be 5% and the “Percent of occurrences prior to B12/folic acid treatment: Neutropenia” value was found to be 32%. Further, in series [4], the “Percent of occurrences prior to B12/folic acid treatment: Neutropenia and Diarrhea” value is recorded as 3%; the “Percent of occurrences prior to B12/folic acid treatment: Neutropenia and Infection” value stood at 2%; the “Percent of occurrences prior to B12/folic acid treatment: Neutropenia and Mucositis” value is reported as 3%.

Consider `Nc1nc2ncc(CNc3ccc(C(=O)N[C@@H](CCC(=O)O)C(=O)O)cc3)nc2c(=O)[nH]1` [Folic acid, folic acid], for which the Tumor growth delay in series [1] (folic acid 6 mg/kg ip alone, same schedule) is reported as 7 days; in series [1] (folic acid 60 mg/kg ip alone, same schedule), 12 days.

On to vitamin B12, for which, in series [1] (vitamin B12 165 mg/kg ip alone, same schedule), the Tumor growth delay is reported as 12 days. Further, the Body weight change result in series [2] (vitamin B12 administration) is reported as “did not prevent weight gain”.
